According to patent US12565501B2, “Muscarinic acetylcholine M1 receptor antagonists” (Contineum Therapeutics, Inc., priority 2019, dated 2026):

Target: T1, human M1 receptor (Homo sapiens, UniProt P11229)
T1 sequence (P11229 1-460): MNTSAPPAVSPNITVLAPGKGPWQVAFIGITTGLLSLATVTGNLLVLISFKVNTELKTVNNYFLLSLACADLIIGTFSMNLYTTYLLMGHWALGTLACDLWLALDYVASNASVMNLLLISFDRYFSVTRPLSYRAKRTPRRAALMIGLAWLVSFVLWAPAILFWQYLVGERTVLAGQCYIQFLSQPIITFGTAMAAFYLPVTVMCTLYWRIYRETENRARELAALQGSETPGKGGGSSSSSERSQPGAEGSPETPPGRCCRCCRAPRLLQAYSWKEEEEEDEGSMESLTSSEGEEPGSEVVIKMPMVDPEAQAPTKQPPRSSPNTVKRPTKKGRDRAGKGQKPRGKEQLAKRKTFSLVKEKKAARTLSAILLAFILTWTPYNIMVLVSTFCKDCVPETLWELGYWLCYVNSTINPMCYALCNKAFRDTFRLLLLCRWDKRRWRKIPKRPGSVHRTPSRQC
Assay: In vitro functional assay of muscarinic acetylcholine receptor activity (aequorin calcium flux, reversal of EC80 acetylcholine response)
Format: cell-based
Conditions: CHO-K1 cells stably expressing human M1 receptor with aequorin; acetylcholine at EC80; calcium flux (luminescence); read-out: M1 IC50
Protocol: CHO-K1 cells stably expressing human M1 receptor with aequorin (Perkin Elmer) were grown in F12 media (Gibco) containing 10% FBS (ATCC), 0.4 mg/mL geneticin (Sigma-Aldrich) and 0.25 mg/mL Zeocin (Invitrogen). Cells were grown as per the manufacturer's protocol. For compound testing, cells were grown to confluency and detached gently with Accutase (Sigma-Aldrich) followed by centrifugation for 5 min at 150× g. Cells were then re-suspended in assay buffer (i.e. DMEM/F-12 HEPES without phenol red (Invitrogen) with 0.1% BSA (Sigma-Aldrich)) at a density of 5×10^6 cells/ml. Under sterile conditions, 5 μM coelenterazine (Invitrogen) was added to the cells, mixed, then incubated at room temperature protected from light, with gentle agitation, for 4 h.
Primary compound plates were prepared in 100% DMSO in opaque 96-well plates (VWR) and serially diluted in half log increments. Secondary compound plates were prepared at 3× concentration in assay buffer. Compounds were added to white, clear bottom tissue culture treated 96-well plates (Fisher Scientific). Coelenterazine-loaded cells were then added at 5×10^5 cells/well.
Compounds and cells were incubated at room temperature for 30 min in the dark. Acetylcholine at the EC80 concentration was added and calcium flux measured using a FlexStation 3 (Molecular Devices). Sigmoidal dose-response curves were generated by measuring luminescence over 40 sec and calculating the area under the curve. Dose response curves and IC50 values were generated using Prism (GraphPad). Compounds were tested at a final concentration range of 100 μM to […] in 0.1% DMSO.

Question: How did the IC50 turn out when CCC(OCC(=O)N1CC2CCC(C1)N2c1ccc(C#N)cn1)c1ccc(F)c(Br)c1 (racemic) [Example 216, 6-(3-(2-(1-(3-bromo-4-fluorophenyl)propoxy)acetyl)-3,8-diazabicyclo[3.2.1]octan-8-yl)nicotinonitrile] was run?
Answer: < 0.01 µM

Question: With CCC(OCC(=O)N1CC2CCC(C1)N2c1ccc(C#N)cn1)c1cc(F)cc(Br)c1 (racemic) [Example 218, 6-(3-(2-(1-(3-bromo-5-fluorophenyl)propoxy)acetyl)-3,8-diazabicyclo[3.2.1]octan-8-yl)nicotinonitrile] as the molecule, how does the IC50 read?
Answer: < 0.01 µM

Question: How did the IC50 turn out when N#Cc1ccc(N2C3CCC2CN(C(=O)COC2(c4ccc(F)c(F)c4)CCOC2)C3)nc1 (racemic) [Example 269, 6-(3-(2-((3-(3,4-difluorophenyl)tetrahydrofuran-3-yl)oxy)acetyl)-3,8-diazabicyclo [3.2.1]octan-8-yl)nicotinonitrile] was run?
Answer: 0.1 to 1 µM

Question: Which IC50 does the source give for CC(OCCC(=O)N1CC2CCC(C1)N2c1ccc(C#N)cn1)c1cccc2ncnn12 (racemic) [Example 308, 6-(3-(3-(1-([1,2,4]triazolo[1,5-a]pyridin-5-yl)ethoxy)propanoyl)-3,8-diazabicyclo[3.2.1]octan-8-yl)nicotinonitrile] here?
Answer: < 0.01 µM

Question: For N#Cc1ccc(N2C3CCC2CN(C(=O)CCOC(c2cccc4ncnn24)C2CC2)C3)nc1 (racemic) [Example 309, 6-(3-(3-([1,2,4]triazolo[1,5-a]pyridin-5-yl(cyclopropyl)methoxy)propanoyl)-3,8-diazabicyclo[3.2.1]octan-8-yl)nicotinonitrile], which IC50 is on record?
Answer: < 0.01 µM

Question: For CC(OCCC(=O)N1CC2CCC(C1)N2c1ccc(C#N)cn1)c1cccc2ncccc12 (racemic) [Example 311, 6-(3-(3-(1-(quinolin-5-yl)ethoxy)propanoyl)-3,8-diazabicyclo[3.2.1]octan-8-yl)nicotinonitrile], which IC50 is on record?
Answer: < 0.01 µM

Question: CC(OCCC(=O)N1CC2CCC(C1)N2c1ccc(C#N)cn1)c1cccc2nccnc12 (racemic) [Example 312, 6-(3-(3-(1-(quinoxalin-5-yl)ethoxy)propanoyl)-3,8-diazabicyclo[3.2.1]octan-8-yl)nicotinonitrile] was tested. Which IC50 did it give?
Answer: < 0.01 µM

Question: For COc1cccc(C(CO)CCC(=O)N2CC3CCC(C2)N3c2ccc(C#N)cn2)c1 (racemic) [Example 317, 6-(3-(5-hydroxy-4-(3-methoxyphenyl)pentanoyl)-3,8-diazabicyclo[3.2.1]octan-8-yl)nicotinonitrile], which IC50 is on record?
Answer: < 0.01 µM

Question: Which IC50 does the source give for CC(NCCC(=O)N1CC2CCC(C1)N2c1ccc(C#N)cn1)c1ccc(F)cc1 (stereo in doubt) [Example 7, 6-(3-(3-(((S)-1-(4-fluorophenyl)ethyl)amino)propanoyl)-3,8-diazabicyclo[3.2.1]octan-8-yl)nicotinonitrile] here?
Answer: 1 to 10 µM

Question: Which IC50 does the source give for CC(NCC(=O)N1CC2CCC(C1)N2c1ccc(C#N)cn1)c1ccc(F)cc1F (stereo in doubt) [Example 88, 6-(3-(((S)-1-(2,4-difluorophenyl)ethyl)glycyl)-3,8-diazabicyclo[3.2.1]octan-8-yl)nicotinonitrile] here?
Answer: 1 to 10 µM

Question: CC(COCC(=O)N1CC2CCC(C1)N2c1ccc(C#N)cn1)c1ccccc1 (stereo in doubt) [Example 185, 6-(3-(2-((S)-2-phenylpropoxy)acetyl)-3,8-diazabicyclo[3.2.1]octan-8-yl)nicotinonitrile] was tested. Which IC50 did it give?
Answer: 0.1 to 1 µM

Question: How did the IC50 turn out when N#Cc1ccc(N2[C@@H]3CC[C@H]2CN(C(=O)CCNC2(c4ccccc4)CC2)C3)nc1 [Example 2, 6-(3-(3-((1-phenylcyclopropyl)amino)propanoyl)-3,8-diazabicyclo[3.2.1]octan-8-yl)nicotinonitrile] was run?
Answer: 0.1 to 1 µM

Question: Which IC50 does the source give for N#Cc1ccc(N2[C@@H]3CC[C@H]2CN(C(=O)CCNC2(c4cccc(F)c4)CC2)C3)nc1 [Example 4, 6-(3-(3-((1-(3-fluorophenyl)cyclopropyl)amino)propanoyl)-3,8-diazabicyclo[3.2.1]octan-8-yl)nicotinonitrile] here?
Answer: 0.01 to 0.1 µM

Question: How did the IC50 turn out when N#Cc1ccc(N2[C@@H]3CC[C@H]2CN(C(=O)CCNC2(c4ccc(F)cc4)CC2)C3)nc1 [Example 5, 6-(3-(3-((1-(4-fluorophenyl)cyclopropyl)amino)propanoyl)-3,8-diazabicyclo[3.2.1]octan-8-yl)nicotinonitrile] was run?
Answer: 0.01 to 0.1 µM

Question: Which IC50 does the source give for C[C@H](NCCC(=O)N1C[C@H]2CC[C@@H](C1)N2c1ccc(C#N)cn1)c1ccc(F)cc1 [Example 6, 6-(3-(3-(((S)-1-(4-fluorophenyl)ethyl)amino)propanoyl)-3,8-diazabicyclo[3.2.1]octan-8-yl)nicotinonitrile] here?
Answer: 1 to 10 µM

Question: C[C@H](NCCC(=O)N1C[C@H]2CC[C@@H](C1)N2c1ccc(C#N)cn1)c1ccc(F)c(F)c1 [Example 8, 6-(3-(3-(((S)-1-(3,4-difluorophenyl)ethyl)amino)propanoyl)-3,8-diazabicyclo[3.2.1]octan-8-yl)nicotinonitrile] was tested. Which IC50 did it give?
Answer: 0.1 to 1 µM

Question: How did the IC50 turn out when C[C@H](NCCC(=O)N1C[C@H]2CC[C@@H](C1)N2c1ccc(C#N)cn1)c1ccc(F)cc1F [Example 9, 6-(3-(3-(((S)-1-(2,4-difluorophenyl)ethyl)amino)propanoyl)-3,8-diazabicyclo[3.2.1]octan-8-yl)nicotinonitrile] was run?
Answer: 0.1 to 1 µM

Question: For N#Cc1ccc(N2[C@@H]3CC[C@H]2CN(C(=O)CCNC2(c4ccc(Cl)c(Cl)c4)CC2)C3)nc1 [Example 10, 6-(3-(3-((1-(3,4-dichlorophenyl)cyclopropyl)amino)propanoyl)-3,8-diazabicyclo[3.2.1]octan-8-yl)nicotinonitrile], which IC50 is on record?
Answer: < 0.01 µM

Question: How did the IC50 turn out when N#Cc1ccc(N2[C@@H]3CC[C@H]2CN(C(=O)CCNC2(c4ccc(F)c(Br)c4)CC2)C3)nc1 [Example 11, 6-(3-(3-((1-(3-bromo-4-fluorophenyl)cyclopropyl)amino)propanoyl)-3,8-diazabicyclo[3.2.1]octan-8-yl)nicotinonitrile] was run?
Answer: < 0.01 µM

Question: How did the IC50 turn out when N#Cc1ccc(N2[C@@H]3CC[C@H]2CN(C(=O)CCNC2(c4cc(Cl)cc(Br)c4)CC2)C3)nc1 [Example 12, 6-(3-(3-((1-(3-bromo-5-chlorophenyl)cyclopropyl)amino)propanoyl)-3,8-diazabicyclo[3.2.1]octan-8-yl)nicotinonitrile] was run?
Answer: 0.1 to 1 µM

Question: Which IC50 does the source give for N#Cc1ccc(N2C3CCC2CN(C(=O)CCNC2(c4cccc(C#N)c4)CC2)C3)nc1 [Example 13, 6-(3-(3-((1-(3-cyanophenyl)cyclopropyl)amino)propanoyl)-3,8-diazabicyclo[3.2.1]octan-8-yl)nicotinonitrile] here?
Answer: 0.01 to 0.1 µM

Question: Which IC50 does the source give for N#Cc1ccc(C2(NCCC(=O)N3CC4CCC(C3)N4c3ccc(C#N)cn3)CC2)cc1 [Example 14, 6-(3-(3-((1-(4-cyanophenyl)cyclopropyl)amino)propanoyl)-3,8-diazabicyclo[3.2.1]octan-8-yl)nicotinonitrile] here?
Answer: 1 to 10 µM

Question: How did the IC50 turn out when COc1ccccc1C1(NCCC(=O)N2CC3CCC(C2)N3c2ccc(C#N)cn2)CC1 [Example 15, 6-(3-(3-((1-(2-methoxyphenyl)cyclopropyl)amino)propanoyl)-3,8-diazabicyclo[3.2.1]octan-8-yl)nicotinonitrile] was run?
Answer: 0.01 to 0.1 µM

Question: Which IC50 does the source give for COc1cccc(C2(NCCC(=O)N3CC4CCC(C3)N4c3ccc(C#N)cn3)CC2)c1 [Example 16, 6-(3-(3-((1-(3-methoxyphenyl)cyclopropyl)amino)propanoyl)-3,8-diazabicyclo[3.2.1]octan-8-yl)nicotinonitrile] here?
Answer: 0.01 to 0.1 µM

Question: Which IC50 does the source give for COc1ccc(C2(NCCC(=O)N3CC4CCC(C3)N4c3ccc(C#N)cn3)CC2)cc1 [Example 17, 6-(3-(3-((1-(4-methoxyphenyl)cyclopropyl)amino)propanoyl)-3,8-diazabicyclo[3.2.1]octan-8-yl)nicotinonitrile] here?
Answer: 0.1 to 1 µM

Question: N#Cc1ccc(N2[C@@H]3CC[C@H]2CN(C(=O)CCNC2(c4ccccn4)CC2)C3)nc1 [Example 18, 6-(3-(3-((1-(pyridin-2-yl)cyclopropyl)amino)propanoyl)-3,8-diazabicyclo[3.2.1]octan-8-yl)nicotinonitrile] was tested. Which IC50 did it give?
Answer: 1 to 10 µM

Question: With N#Cc1ccc(N2[C@@H]3CC[C@H]2CN(C(=O)CCNC2(c4cccnc4)CC2)C3)nc1 [Example 19, 6-(3-(3-((1-(pyridin-3-yl)cyclopropyl)amino)propanoyl)-3,8-diazabicyclo[3.2.1]octan-8-yl)nicotinonitrile] as the molecule, how does the IC50 read?
Answer: 0.1 to 1 µM

Question: For N#Cc1ccc(N2[C@@H]3CC[C@H]2CN(C(=O)CCNC2(c4ncccc4F)CC2)C3)nc1 [Example 20, 6-(3-(3-((1-(3-fluoropyridin-2-yl)cyclopropyl)amino)propanoyl)-3,8-diazabicyclo[3.2.1]octan-8-yl)nicotinonitrile], which IC50 is on record?
Answer: 1 to 10 µM
